Results taken from paper PMC3877268, “Reconstructed Ancestral Myo-Inositol-3-Phosphate Synthases Indicate That Ancestors of the Thermococcales and Thermotoga Species Were More Thermophilic than Their Descendants” (PLoS ONE, 2013).

Key:
Experiment in all cases: periodate / malachite green phosphate assay, Lineweaver-Burk
Type in all cases: biochemical, synthetic construct
ACM_C1 = system: T1, ACM_C1; details: 15 mM NH4Cl, 10 mM imidazole-HCl pH 7.8, 95 °C (Topt)
T1 construct: gene by GenScript, pBAD TOPO, E. coli TOP10
Text: periodate / malachite green phosphate assay, Lineweaver-Burk on ACM_C1

AAM_A1 = system: T2, AAM_A1; details: 15 mM NH4Cl, 10 mM imidazole-HCl pH 7.8, 99 °C (Topt)
T2 construct: gene by GenScript, pBAD TOPO, E. coli TOP10
Text: periodate / malachite green phosphate assay, Lineweaver-Burk on AAM_A1

ACM_C2 = system: T3, ACM_C2; details: 15 mM NH4Cl, 10 mM imidazole-HCl pH 7.8, 95 °C (Topt)
T3 construct: gene by GenScript, pBAD TOPO, E. coli TOP10
Text: periodate / malachite green phosphate assay, Lineweaver-Burk on ACM_C2

ATM_T4 = system: T4, ATM_T4; details: 15 mM NH4Cl, 10 mM imidazole-HCl pH 7.8, 83 °C (Topt)
T4 construct: reconstructed node T ancestor, one of four (125/126 Ser/Lys or Thr/Glu); gene by GenScript, pBAD TOPO, E. coli TOP10
Text: periodate / malachite green phosphate assay, Lineweaver-Burk on ATM_T4

ATM_T3 = system: T5, ATM_T3; details: 15 mM NH4Cl, 10 mM imidazole-HCl pH 7.8, 85 °C (Topt)
T5 construct: reconstructed node T ancestor, one of four (125/126 Ser/Lys or Thr/Glu); gene by GenScript, pBAD TOPO, E. coli TOP10
Text: periodate / malachite green phosphate assay, Lineweaver-Burk on ATM_T3

AAM_A2 = system: T6, AAM_A2; details: 15 mM NH4Cl, 10 mM imidazole-HCl pH 7.8, 99 °C (Topt)
T6 construct: gene by GenScript, pBAD TOPO, E. coli TOP10
Text: periodate / malachite green phosphate assay, Lineweaver-Burk on AAM_A2

ATM_T1 = system: T7, ATM_T1; details: 15 mM NH4Cl, 10 mM imidazole-HCl pH 7.8, 90 °C (Topt)
T7 construct: reconstructed node T ancestor, one of four (125/126 Ser/Lys or Thr/Glu); gene by GenScript, pBAD TOPO, E. coli TOP10
Text: periodate / malachite green phosphate assay, Lineweaver-Burk on ATM_T1

ATM_T2 = system: T8, ATM_T2; details: 15 mM NH4Cl, 10 mM imidazole-HCl pH 7.8, 83 °C (Topt)
T8 construct: reconstructed node T ancestor, one of four (125/126 Ser/Lys or Thr/Glu); gene by GenScript, pBAD TOPO, E. coli TOP10
Text: periodate / malachite green phosphate assay, Lineweaver-Burk on ATM_T2

Km (ACM_C1): 2340 ± 460 µM
Km (AAM_A1): 2770 ± 600 µM
Km (ACM_C2): 6270 ± 1940 µM
Km (ATM_T4): 600 ± 60 µM
Km (ATM_T3): 540 ± 150 µM
Km (AAM_A2): 1320 ± 110 µM
Km (ATM_T1): 630 ± 100 µM
Km (ATM_T2): 460 ± 80 µM
Structure (SMILES): O=P(O)(O)OC[C@H]1OC(O)[C@H](O)[C@@H](O)[C@@H]1O (some centres unmarked) [glucose-6-phosphate]
